Results as given in patent US20250177366A1, “COMPOSITIONS AND METHODS FOR ALLEVIATING PAIN AND REDUCING ADVERSIVENESS OF STIMULI” (UNIVERSITY OF WASHINGTON, priority 2021, published 2025).

Legend:
Format in all cases: in vivo, Zebrafish (Danio rerio)
larval zebrafish [1] = assay: Thermal preference assay (28.5° C. vs 37.5° C.), non-sensitized; details: for effect of co-applied drug on swimming velocity of AS1-treated fish: 28.5 and 37.5° C. zones; for effect of co-applied drug on swimming velocity of AS1-treated fish / effect of co-applied drug on AS1-induced attraction to noxious heat: drug + 5 μM AS1; for effect of co-applied drug on AS1-induced attraction to noxious heat / temperature choice, drug alone: 28.5° C. vs 37.5° C.; for temperature choice, drug alone: without AS1
Procedure: Thermal preference assay. […] Once an entire plate was loaded with fish, the appropriate incubation solution was added. […] Following incubation in all experiments, the choice testing plate was transported to a dual solid-state heat/cool plate (AHP-1200° C. P; Teca) and centered such that half of each arena was positioned over each side of the heat/cool plate. […] Locomotor behavior was recorded using a Canon high-definition video camcorder suspended at a fixed position above the choice testing plate. Each trial was four minutes in duration.
For single-incubation assays (e.g. testing single chemicals), larval zebrafish were caught in 100 μL E2 media and 100 μL of the control (2% DMSO) or test chemical at 2× concentration was added to each well to achieve the final desired concentration. […] The final DMSO concentration in all solutions was 1%.

larval zebrafish [2] = assay: AITC aversion assay (chemical attraction/aversion, AITC-infused agarose); details: AITC 100 mM in agarose; for effect of co-applied drug on AS1-induced attraction to AITC: drug + AS1 (5 μM; 2.5 μM with SKF and sumanirole); for AITC aversion, drug alone: without AS1
Text: Whether the effects of AS1 extended beyond noxious temperature sensation or could also impact other somatosensory modalities was next explored. To accomplish this, a chemical attraction/aversion assay where a thin layer of agarose was deposited along the edges of a square arena (Jordi et al., Sci. Adv. 2018; 4:1-15) were adapted. Along one wall, the agarose contained the chemical to be tested, while the other three walls were lined with control agarose. It was anticipated that a chemical gradient would be established as chemical diffused from the agarose into the surrounding water. Larvae were pre-incubated in either vehicle or AS1 and then added to the arena and the distance of each larva from the chemical-infused agarose was measured. In control experiments where all four walls of the arena were lined with agarose only, AS1 and vehicle-treated larvae were dispersed evenly throughout the arena (FIG. 3). […] When the nociceptive chemical AITC (100 mM, 10,000× maximal effective dose) was tested, vehicle-treated larvae swam away from the AITC source.
(§1) Chemical attraction/aversion assays. The agarose attraction/aversion assay was adapted from previously described experiments (Jordi et al., Sci. Adv. 2018; 4:1-15). For the AITC aversion assay, AITC and DMSO were added to molten 0.8% agarose to achieve a final concentration of 100 mM AITC and 2% DMSO. For the AS1 attraction/aversion assay, AS1 and DMSO were added to 0.8% molten agar to achieve final concentrations of 50 mM and 2%, respectively. To construct the test chambers, the lids of 10×10 cm square petri dishes (insert cat #and company) were lined on four sides with either the test (chemical-containing) or plain agarose (300 μL per side) and allowed to solidify. For all experiments, 30-40 randomly selected 6 dpf zebrafish were caught with a 10 mL pipette pump (Bel-Air Products, cat #: 13683C) equipped with a glass wide-bored Pasteur pipet (Fisher Scientific, cat #: 22-037-540) and deposited into a standard 10 cm diameter petri dish (Fisher Scientific, cat #: 07-202-031). As much E2 media as possible was carefully removed using the same pipette. For single incubation experiments, 30 mL of 1× solutions of the control or test chemical was added to each petri dish, and fish were incubated for 10 minutes at 28.5° C. For double incubation experiments, 15 mL of 1× solutions containing control (DMSO) or test chemicals was added to the larvae-containing petri dish. Following a ten minute incubation, 15 mL of the second incubation solution (1× control or test chemical +/−2× AS1) was added to the petri dish, and the fish were incubated for a second ten minute block. The final concentration of DMSO in all solutions was 1%. In all double-incubation experiments, the final concentration of AS1 was 5 μM unless otherwise noted. After completion of the last incubation period, the contents of each petri dish were poured into separate agarose-lined square dishes. Swimming behavior was immediately recorded for 20 minutes using the same high-definition camcorder in the thermal preference assays.

larval zebrafish [3] = assay: Light/dark preference (phototaxis) assay; details: for effect of co-applied drug on AS1-induced preference for the dark: drug + 2.5 μM AS1; for light/dark preference, drug alone: without AS1
Procedure: Following this, whether the effects of AS1 were restricted to somatosensation or were generalizable to other aversive stimuli were tested. Thus, the effects of AS1 on light/dark preference were tested. Zebrafish larvae prefer white light environments to dark environments and this preference is inhibited by anxiolytics, analagous to studies in rodents (Lau et al., Proc. Natl. Acad. Sci. U.S.A 2011; 108:2581-2586; Burgess et al., Curr. Biol. 2010; 20:381-386). To measure light/dark preference, larval zebrafish were placed in a square arena and given the choice between a bright white light and total darkness, and the number of larvae on each side was quantified at 30 second intervals. Five 4-minute trials were performed, where the light and dark sides of the arena were reversed between trials. […] Given the precise control over stimulus luminosity in this assay, the effects of altering the intensity of the dark stimulus were explored next. In this gradient version of the phototaxis assay, larval zebrafish were given the choice between a bright white environment and one of six potential shades of darkness, ranging from light gray to solid black. […] This implies that the valence of non-painful noxious stimuli is precisely encoded in an intensity-dependent manner, and that AS1 exerts its effects in proportion to the intensity of the stimulus.
Light/dark preference (phototaxis) assay. In the light/dark preference assay, randomly-selected 6 dpf larval zebrafish (N of 30 to 40) were carefully pipetted onto a 10 cm square petri dish using a 10 mL pipette pump equipped with a glass wide-bored Pasteur pipet. As much E2 media as possible was carefully removed using the same pipet. For single incubation experiments, 30 mL of 1× solutions of the control or test chemical was added to each petri dish, and fish were incubated for 10 minutes at 28.5° C. For double incubation experiments, 15 mL of 1× solutions containing control (DMSO) or test chemicals was added to the larvae-containing petri dish. Following a ten-minute incubation period, 15 mL of the second incubation solution (1× control or test chemical +/−2× AS1) was added to the petri dish, and the fish were incubated for a second ten minute block. The final concentration of DMSO in all solutions was 1%. In all double-incubation experiments, the final concentration of AS1 was 2.5 μM. These petri dishes were then positioned over a horizontally-oriented computer monitor displaying a PowerPoint presentation. For standard light/dark preference assays, a blank white slide was initially presented for one minute, after which the presentation would automatically advance to a slide in which half of the display was black. The petri dish with larvae was positioned such that exactly half was directly over the dark side, and the other half was directly over the light side. After four minutes, the presentation automatically advanced to a slide in which the black and white halves switched places. A total of five four-minute trials, with the dark/light halves automatically switching position between trials, were recorded. For the gradient phototaxis assay, experiments were performed identically, except that the “dark” half of the powerpoint presentation was one of six shades of gray.
In all experiments, an initial still frame of video was taken during the minute where the blank slide was presented in order to quantify the total number of fish in the experiment. Following this, still frames were taken at 30 second intervals for each trial ([…]), and the number of fish present in the light half of the arena were counted. To generate the graphs that looked at swimming patterns over time in a trial (e.g., FIG. 3D), the average percentage of fish in the light at each time point (T=0, T=30, etc.) was calculated across all five trials. […]

larval zebrafish [4] = assay: Chemical attraction/aversion assay with the test chemical itself as source (inherent attractiveness); details: 2 mL in trough of 3D-printed arena; SKF 25 μM; AS1 10 μM-1 mM
Text: To confirm that AS1 itself was not attractive, the chemical attraction/aversion assay was used. […] Since the assay was modified to accommodate the inability to dissolve SKF into agarose at high concentrations (see Materials and Methods), the inherent attractiveness of AS1 was re-tested using this new format.
as §1, with “Following a ten minute incubation, 15 mL of the second incubation solution (1× control or test chemical +/−2× AS1) was added to the petri dish, and the fish were incubated for a second ten minute block. The final concentration of DMSO in all solutions was 1%. In all double-incubation experiments, the final concentration of AS1 was 5 μM unless otherwise noted. After completion of the last incubation period, the contents of each petri dish were poured into separate agarose-lined square dishes.” left out
For the SKF attraction/aversion assay, custom 10 cm×10 cm plates using clear resin (Formlabs, cat #: RS-F2-GPCL-04) and a Form 3+3D printer (Formlabs, cat #: PKG-F3-WSVC-BASIC) were designed. […] Swimming behavior was then recorded for 20 minutes. […]

## C=CCN1CCc2c(cc(O)c(O)c2Cl)C(c2ccccc2)C1 (stereo not drawn) [SKF82958]
Larval zebrafish [1]
  effect of co-applied drug on swimming velocity of AS1-treated fish: reduced the swimming velocity of AS1-treated zebrafish in the 28.5 °C zone
  effect of co-applied drug on AS1-induced attraction to noxious heat: significantly attenuated the amount of time AS1-treated fish spent at 37.5 °C
  temperature choice, drug alone: slight potentiation of preference for the 28.5 °C side
Larval zebrafish [2]
  effect of co-applied drug on AS1-induced attraction to AITC: did block AS1-induced preference to this chemical irritant
  AITC aversion, drug alone: had little effect upon aversion to AITC
Larval zebrafish [3]
  effect of co-applied drug on AS1-induced preference for the dark: reversed dark preference in fish that were treated with AS1
  light/dark preference, drug alone: slight decrease in the proportion of fish found in the light by itself
Larval zebrafish [4]
  inherent attractiveness of chemical deposited into trough: mildly attractive

## CCN1CCCC1CNC(=O)c1cc(S(N)(=O)=O)ccc1OC (stereo not drawn) [sulpiride]
Larval zebrafish [1]
  effect of co-applied drug on swimming velocity of AS1-treated fish: had no effect
  effect of co-applied drug on AS1-induced attraction to noxious heat: had no effect
  temperature choice, drug alone: had no effect
Larval zebrafish [2]
  effect of co-applied drug on AS1-induced attraction to AITC: had no effect
  AITC aversion, drug alone: had no effect
Larval zebrafish [3]
  effect of co-applied drug on AS1-induced preference for the dark: had no effect
  light/dark preference, drug alone: had no effect

## sumanirole maleate
Larval zebrafish [1]
  effect of co-applied drug on AS1-induced attraction to noxious heat: had no effect
  temperature choice, drug alone: had no effect
Larval zebrafish [2]
  effect of co-applied drug on AS1-induced attraction to AITC: did seem to attenuate AS1-mediated attraction to AITC, but only at higher concentrations
  AITC aversion, drug alone: had little effect alone in the chemical aversion assay
Larval zebrafish [3]
  effect of co-applied drug on AS1-induced preference for the dark: had no effect
  light/dark preference, drug alone: had no effect
